Legend:
[1] = tested on: HT-1080 cells producing GA-GCB; test: Roller bottle production of glucocerebrosidase (GA-GCB) in cells treated with mannosidase inhibitors; assay type: cell-based, human; conditions: for Glucocerebrosidase Activity, Harvest 1: medium harvested about every 24 hours, specific activity 2,500 Units/mg
Experimental: Ten roller bottles (surface area, 1700 cm^2 each) were seeded in Growth Medium (DMEM with 10% calf serum) with HT-1080 cells producing GA-GCB. Following two weeks of growth, the medium was aspirated and 200 mL of fresh Production Medium (DMEM/F12, 0% calf serum) was added to three sets of roller bottles. Two sets of 4 roller bottles were treated with 1 μg/mL of either kifunensine or swainsonine. The third group of two roller bottles received no drug treatment. After approximately 24 hours, the medium from each roller bottle was harvested, pooled and a sample taken for GA-GCB enzymatic activity analysis. This procedure was repeated for seven days. […] Absolute levels of the enzyme, however, varied according to drug treatment group with the following average GA-GCB production levels observed across the seven harvests: 38.3±3.5 mg/L (control, no drug treatment), 24.5±4.0 mg/L (swainsonine, 1 μg/mL), and 21.3±2,8 mg/L (kifunensine, 1 μg/mL).

[2] = tested on: mouse J774E cells; test: Internalization (uptake) of glucocerebrosidase into J774E macrophage cells, with or without mannan; assay type: cell-based; conditions: producing cells treated with 1 μg/mL of drug
Experimental: GA-GCB produced in HT-1080 cells was used in an in vitro assay to determine uptake efficiency in a mouse macrophage cell line. The specific objective of the experiment was to determine the absolute and mannose receptor-specific uptake of GA-GCB in mouse J774E cells. One day prior to assay, J774E cells were plated at 50,000 cells/cm^2 in 12 well plates in Growth Medium. For the assay, 0.5 mL of Production Medium (DMEM/F12), 0% calf serum) containing 50 nM vitamin D3 (1,2-5, Dihydroxy vitamin D3) was added to the cells. Unpurified GA-GCB (from harvest 4, Table 1) was added to the test wells at a final concentration of 10 μg/mL in the presence or absence of 2 μg/mL mannan (a competitor for the mannose receptor). Three different forms of GA-GCB were used: GA-GCB from cells treated with kifunensine (1 μg/mL), GA-GCB from cells treated with swainsonine (1 μg/mL), and GA-GCB (1 μg/mL) from untreated cells. Control wells received no GA-GCB. The wells were incubated for 4 hours at 37° C., then washed extensively in buffered saline, scraped into GA-GCB enzyme reaction buffer, passed through 2 freeze/thaw cycles, and clarified by centrifugation. The supernantant was then quantitatively tested for enzyme activity and total protein. Internalization of GA-GCB into mouse J744E cells is shown in Table 2 and is reported as Units/mg of cell lysate. […]

[3] = tested on: HT-1080 cells producing GA-GCB; test: Isoelectric focusing (IEF) analysis of GA-GCB glycoforms from cells treated with kifunensine or swainsonine; assay type: cell-based, human; conditions: for apparent isoelectric point (pI) of GA-GCB: 0.1 to 2 μg/mL drug, samples from the third day
Experimental: HT-1080 cells producing GA-GCB were plated in duplicate 6-well plates and the Production Medium adjusted to the following concentrations of kifunensine or swainsonine: 0 (no drug), 0.1, 0.25, 0.5, 1, and 2 μg/mL. The medium was harvested and the cells refed every 24 hours for three days. The samples from the third day were subjected to isoelectric focusing (IEF) analysis. The effect of kifunensine and swainsonine on the molecular charge of GA-GCB is shown by the IEF analysis.

[4] = inhibitor 1 μg/ml, across seven harvests

O=C1N[C@@H]2[C@@H](O)[C@@H](O)[C@H](O)[C@@H](CO)N2C1=O [Kifunensine, kifunensine]
reduction of GA-GCB production relative to control ([1]; inhibitor 1 μg/mL, average of seven harvests): 44% | Glucocerebrosidase Activity, Average ± Standard Deviation [1, 4]: 21.3 ± 2.8 mg/L | Glucocerebrosidase Activity, Harvest 2 ([1]; inhibitor 1 μg/ml): 22.9 mg/L | Glucocerebrosidase Activity, Harvest 3 ([1]; inhibitor 1 μg/ml): 17.7 mg/L | Glucocerebrosidase Activity, Harvest 4 ([1]; inhibitor 1 μg/ml): 21.2 mg/L | Glucocerebrosidase Activity, Harvest 5 ([1]; inhibitor 1 μg/ml): 18.4 mg/L | Glucocerebrosidase Activity, Harvest 6 ([1]; inhibitor 1 μg/ml): 21.0 mg/L | Glucocerebrosidase Activity, Harvest 7 ([1]; inhibitor 1 μg/ml): 22.0 mg/L | Glucocerebrosidase Activity, Harvest 1 ([1]; inhibitor 1 μg/ml): 26.0 mg/L | greater uptake of GA-GCB with kifunensine than with swainsonine [2]: approximately 2 fold | apparent isoelectric point (pI) of GA-GCB [3]: concentration dependent increase | shift in pI of GA-GCB, compared between the drugs ([3]; highest concentration tested (2 μg/mL)): much larger shift in pI than swainsonine

O[C@H]1[C@H]2[C@H](O)CCCN2C[C@H]1O [Swainsonine, swainsonine]
average GA-GCB production level across the seven harvests ([1]; inhibitor 1 μg/mL): 24.5 ± 4.0 mg/L | GA-GCB production level, average ± SD [1, 4]: 24.5 ± 4.0 mg/L | Glucocerebrosidase Activity, Harvest 2 ([1]; inhibitor 1 μg/ml): 17.4 mg/L | Glucocerebrosidase Activity, Harvest 3 ([1]; inhibitor 1 μg/ml): 28.5 mg/L | Glucocerebrosidase Activity, Harvest 4 ([1]; inhibitor 1 μg/ml): 27.0 mg/L | Glucocerebrosidase Activity, Harvest 5 ([1]; inhibitor 1 μg/ml): 22.9 mg/L | Glucocerebrosidase Activity, Harvest 6 ([1]; inhibitor 1 μg/ml): 25.0 mg/L | Glucocerebrosidase Activity, Harvest 7 ([1]; inhibitor 1 μg/ml): 22.3 mg/L | Glucocerebrosidase Activity, Harvest 1 ([1]; inhibitor 1 μg/ml): 28.6 mg/L | apparent isoelectric point (pI) of GA-GCB [3]: concentration dependent increase

Reference: patent publication US7138262B1, “High mannose proteins and methods of making high mannose proteins” (Shire Human Genetic Therapies, Inc., priority 2000, dated 2006)
